Series [1] in a line: in vitro. The following applies: human.
Series [2] can be described thus: in vitro. The following applies: hepatocytes.
Another series in a line: physchem. As to conditions: octan-1-ol/water.

In general, microsomal CLint refers to the capacity of the preparation to metabolise the compound, expressed as a volume cleared per time. The low end stands for greater metabolic stability, the high end for faster metabolism. As a reminder, the hepatocyte CLint is the capacity of the preparation to metabolise the compound, expressed as a volume cleared per time. A low value points to greater metabolic stability. Regarding `N#CC1(NC(=O)[C@@H]2CCCC[C@H]2C(=O)N2CCN(c3nc4ccncc4s3)CC2)CC1`, the microsomal CLint in “in vitro [1]” (microsomes) came out at 17.8 µL/min/mg. The same molecule displayed a hepatocyte CLint in the series “in vitro [2]” of 6.61 µL/min/1e6 cells.
The corresponding values for `Cc1cc(OCC(=O)NCc2ccccc2)c2cc(Br)ccc2n1` are 126 µL/min/mg and 51.3 µL/min/1e6 cells.
Taken in the same sequence, the figures for `Cc1cc(OCC(=O)Nc2ccccc2)c2cc(Br)ccc2n1` were 123 µL/min/mg and > 150 µL/min/1e6 cells.
Broadly, the logD is the decadic logarithm of the distribution of all forms, ionised or not, between an organic phase and buffer at a given pH. High values mean a more lipophilic compound, low ones a more hydrophilic compound. Consider `COc1cc(Nc2nc3c(cc2F)ncn3[C@@H](CO)c2ccc(F)cn2)n[nH]1`, for which the microsomal CLint in “in vitro [1]” (microsomes) is 7.24 µL/min/mg. Besides, the log distribution coefficient (logD) in “physchem” (pH 7.4, LogD7.4) is 2.18. This molecule also yielded a hepatocyte CLint in “in vitro [2]” of 27.5 µL/min/1e6 cells.
`Nc1ncnc2c1ncn2[C@@H]1O[C@H](CSCCCNC(=O)Nc2ccccc2)[C@@H](O)[C@H]1O` showed a microsomal CLint in the series “in vitro [1]” (microsomes) of 9.77 µL/min/mg. Besides, the logD in the series “physchem” (pH 7.4, LogD7.4) is 1.9. For the same molecule, the hepatocyte CLint in “in vitro [2]” amounted to 28.2 µL/min/1e6 cells.
In “in vitro [1]” (liver microsomes), `Nc1nnc(CCSCCc2nnc(NC(=O)Cc3ccccc3)s2)s1` had a microsomal CLint of 55 µL/min/mg. The molecule also registered a hepatocyte CLint in “in vitro [2]” of 72.4 µL/min/1e6 cells.
As for `O=C(NCc1ccccc1)c1ccc2cccnc2c1O`, in “in vitro [1]” (liver microsomes), the microsomal CLint stood at 49 µL/min/mg. The molecule further registered a hepatocyte CLint in the series “in vitro [2]” of 22.8 µL/min/1e6 cells.
Taken in the same sequence, the figures for `CCc1cccc2c1N(C)Cc1cc3c(cc1-2)OCO3` were 44.7 µL/min/mg and > 150 µL/min/1e6 cells.
`COc1ccc(C#Cc2ccc([C@@H]3[C@H](CO)N4CCCCN(C(=O)Nc5cccc(F)c5)C[C@@H]34)cc2)cc1`: the microsomal CLint in the series “in vitro [1]” (microsomes) was found to be 50.1 µL/min/mg. Besides, the hepatocyte CLint in “in vitro [2]” was 18.2 µL/min/1e6 cells.
Consider `COc1ccc(CC(=O)NC(NC(=NC#N)Nc2ccccc2C)C(C)(C)C)cc1OC` (stereo not drawn), for which, in the series “in vitro [1]” (liver microsomes), the microsomal CLint is > 150 µL/min/mg. In “physchem” (pH 7.4, LogD7.4), the logD was determined as 2.48. Moreover, in the series “in vitro [2]”, the hepatocyte CLint came out at 26 µL/min/1e6 cells.
Molecule `Oc1nc2c(O)ccc(CCNCCCCCCOCCc3ccccc3)c2s1` yielded an intrinsic metabolic clearance (microsomal CLint) in the series “in vitro [1]” (microsomes) of 29 µL/min/mg. This molecule had a logD in the series “physchem” (pH 7.4, LogD7.4) of 2.21. The molecule also displayed a hepatocyte CLint in the series “in vitro [2]” of 88 µL/min/1e6 cells.
For the molecule `COc1ccc(-c2nc3ccccc3c(=O)[nH]2)cc1`, the microsomal CLint in “in vitro [1]” (liver microsomes) is > 150 µL/min/mg. In the series “in vitro [2]”, the hepatocyte CLint is > 150 µL/min/1e6 cells.
In “in vitro [1]” (liver microsomes), `CCN(CC)c1ccc2cc(C(C)=O)c(=O)oc2c1` showed a microsomal CLint of 120 µL/min/mg. Besides, in the series “physchem” (pH 7.4, LogD7.4), the logD is 2. Also, the hepatocyte CLint in “in vitro [2]” was > 150 µL/min/1e6 cells.
Take `COc1nc(N)nc2c1ncn2[C@@H]1O[C@H](CO)[C@@H](O)[C@H]1O`: the microsomal CLint in “in vitro [1]” (microsomes) turned out to be 42.7 µL/min/mg. Moreover, in “physchem” (pH 7.4), the logD is -0.58. In addition, the hepatocyte CLint in the series “in vitro [2]” was determined as 10.5 µL/min/1e6 cells.
Regarding `CCOC(=O)c1c(-c2ccccc2)nc2ccc(C)cn12`, the microsomal CLint in “in vitro [1]” (microsomes) was > 150 µL/min/mg. The molecule also had a hepatocyte CLint in “in vitro [2]” of 126 µL/min/1e6 cells.
In “in vitro [1]” (liver microsomes), `CS(=O)(=O)Nc1ccc(CCOCCCS(=O)(=O)CCNCCc2ccc(O)c3nc(O)sc23)cc1` yielded a microsomal CLint of 28 µL/min/mg. In “in vitro [2]”, this molecule registered a hepatocyte CLint of 105 µL/min/1e6 cells.
`COc1ccc(N(C(C)=O)C(C(=O)NC2CCCC2)c2ccccc2F)c(OC)c1` (stereo not drawn): the microsomal CLint in “in vitro [1]” (liver microsomes) was > 150 µL/min/mg. Also, the hepatocyte CLint in “in vitro [2]” is > 150 µL/min/1e6 cells.
The corresponding values for `COc1ccc(N(C(=O)c2ccco2)C(C(=O)NC2CCCC2)c2ccccc2F)c(OC)c1` (stereo not drawn) are > 150 µL/min/mg and > 150 µL/min/1e6 cells.
`CC1(C)[C@@H]2CC[C@@]1(CS(=O)(=O)N1CCN(c3ccc(C#N)cn3)CC1)C(=O)C2` returned a microsomal CLint in the series “in vitro [1]” (liver microsomes) of 103 µL/min/mg. The molecule also registered a logD in “physchem” (pH 7.4, LogD7.4) of 2.46. Also, the hepatocyte CLint in “in vitro [2]” is > 150 µL/min/1e6 cells.
Turning to `N#Cc1cccc(NCC(=O)Nc2c(Cl)ccc3nc(N4CC[C@@H](O)C4)ccc23)c1`, the microsomal CLint in “in vitro [1]” (microsomes) is 30 µL/min/mg. Further, the logD in “physchem” (pH 7.4, LogD7.4) was found to be 2.39. Further, the hepatocyte CLint in the series “in vitro [2]” was 8 µL/min/1e6 cells.
In the case of `Cn1c(=O)c(-c2c(Cl)cccc2Cl)cc2cnc(Nc3ccc(F)cc3)nc21`, in the series “in vitro [1]” (microsomes), the microsomal CLint came to 132 µL/min/mg. This molecule came in with a hepatocyte CLint in the series “in vitro [2]” of 6.17 µL/min/1e6 cells.
The corresponding values for `Cc1cnc(Nc2ccc(F)cc2Cl)nc1-c1c[nH]c(C(=O)N[C@H](CO)c2cccc(Cl)c2)c1` are 25.1 µL/min/mg and 12.9 µL/min/1e6 cells.
Taken in the same sequence, the figures for `CCn1c(SCC(=O)Nc2cccc(C)c2)nnc1-c1ccccc1` were > 150 µL/min/mg and > 150 µL/min/1e6 cells.
The corresponding values for `Cc1cc(NS(=O)(=O)c2ccc(Cl)cc2)no1` are < 3 µL/min/mg and 8.51 µL/min/1e6 cells.
For the molecule `O=CN(O)CCCP(=O)(O)O` [FOSMIDOMYCIN], in “in vitro [1]” (liver microsomes), the microsomal CLint worked out at 3.02 µL/min/mg. In addition, the hepatocyte CLint in the series “in vitro [2]” was < 3 µL/min/1e6 cells.
The corresponding values for `Cc1ccc2c(NC[C@](O)(CC(C)(C)c3cc(F)cc4c3OCC4)C(F)(F)F)cccc2n1` [MAPRACORAT] are > 150 µL/min/mg and 50.1 µL/min/1e6 cells.
For the molecule `CC(C(=O)O)c1ccc(C(=O)c2cccs2)cc1` (stereo not drawn) [SUPROFEN], in the series “in vitro [1]” (microsomes), the microsomal CLint was < 3 µL/min/mg. Also, the hepatocyte CLint in the series “in vitro [2]” is 16 µL/min/1e6 cells.
For the molecule `C[C@@H](O)[C@H]1C(=O)N2C(C(=O)OCOC(=O)C(C)(C)C)=C(SC3CN(C4=NCCS4)C3)[C@H](C)[C@H]12` [TEBIPENEM PIVOXIL], the microsomal CLint in “in vitro [1]” (liver microsomes) was > 150 µL/min/mg. For the same molecule, the hepatocyte CLint in the series “in vitro [2]” is > 150 µL/min/1e6 cells.
For the molecule `C[C@@H](O)[C@H]1C(=O)N2C(C(=O)O)=C(SC3CN(C4=NCCS4)C3)[C@H](C)[C@H]12` [TEBIPENEM], the microsomal CLint in “in vitro [1]” (liver microsomes) came out at 23.4 µL/min/mg. Also, the hepatocyte CLint in the series “in vitro [2]” was 4.79 µL/min/1e6 cells.
Taken in the same sequence, the figures for `CC1Sc2c(C(=O)O)c(=O)c3cc(F)c(N4CCNCC4)cc3n21` (stereo not drawn) [ULIFLOXACIN] were 13.8 µL/min/mg and < 3 µL/min/1e6 cells.

(Values after ChEMBL document CHEMBL3301361, “Experimental in vitro DMPK and physicochemical data on a set of publicly disclosed compounds”.)
